From patent US20230146455A1, “TREATMENT OF INFLAMMATORY DISEASES WITH PEPTIDES AND PHARMACEUTICAL COMPOSITIONS” (Yuyu Pharma, Inc., priority 2020, published 2023)
Several values for one entry are separate records, joined by “and”; a condition that tells them apart may be missing. Equal entries are not always repeated. Where a SMILES comes first, the peptide text is derived from it. [ ]: non-standard residue; d: D form. Hyp = O=C(O)[C@@H]1C[C@@H](O)CN1

System: IL-1 alpha/IL-1F1
Experiment: Example 8 main study Luminex, LPS hPBMCs: IL-1 alpha/IL-1F1
Type: cell-based, human
Description: Human PBMCs were pretreated with YY-101, YDE-011, YDE-043 or reference compound; Xiidra® at various concentration (ranging from […] to 500 nM) for 2 h before stimulation. An equal volume of 0.5% DMSO was used as a vehicle control. Then, the cells were treated with LPS at 5 ug/ml, which was selected based on the pilot study. The supernatants from treated cells were harvested at 24 h and placed in a 96 well for Luminex cytokine & chemokine profiling using a Luminex 200 multiplex assay (Luminex; R&D system, USA).
The main study arm with triplicate wells per group in a 24-well plate: • 1. Blank • 2. PBMC: 0.5% DMSO • 3. PBMC+LPS (5 ug/ml) • 4. PBMC+YY-101 500 nM • 5. PBMC+YY-101 50 nM • 6. PBMC+YY-101 5 nM • 7. PBMC+YY-101 0.5 nM • 8. PBMC+LPS (5 ug/ml)+Xiidra® 500 nM • 9. PBMC+LPS (5 ug/ml)+Xiidra® 50 nM • 10. PBMC+LPS (5 ug/ml)+Xiidra® 5 nM • 11. PBMC+LPS (5 ug/ml)+Xiidra® 0.5 nM • 12. PBMC+LPS (5 ug/ml)+Xiidra® 0.05 nM • 13. PBMC+LPS (5 ug/ml)+Xiidra® 0.005 nM • 14. PBMC+LPS (5 ug/ml)+YY-101 500 nM • 15. PBMC+LPS (5 ug/ml)+YY-101 50 nM • 16. PBMC+LPS (5 ug/ml)+YY-101 5 nM • 17. PBMC+LPS (5 ug/ml)+YY-101 0.5 nM • 18. PBMC+LPS (5 ug/ml)+YY-101 0.05 nM • 19. PBMC+LPS (5 ug/ml)+YY-101 0.005 nM • 20. PBMC+LPS (5 ug/ml)+YDE-011 500 nM • 21. PBMC+LPS (5 ug/ml)+YDE-011 50 nM • 22. PBMC+LPS (5 ug/ml)+YDE-011 5 nM • 23. PBMC+LPS (5 ug/ml)+YDE-011 0.5 nM • 24. PBMC+LPS (5 ug/ml)+YDE-011 0.05 nM • 25. PBMC+LPS (5 ug/ml)+YDE-011 0.005 nM • 26. PBMC+LPS (5 ug/ml)+YDE-043 500 nM • 27. PBMC+LPS (5 ug/ml)+YDE-043 50 nM • 28. PBMC+LPS (5 ug/ml)+YDE-043 5 nM • 29. PBMC+LPS (5 ug/ml)+YDE-043 0.5 nM • 30. PBMC+LPS (5 ug/ml)+YDE-043 0.05 nM • 31. PBMC+LPS (5 ug/ml)+YDE-043 0.005 nM
Multiplex assay was used to measure 30 cytokines and chemokines. The 1:200 diluted cell supernatant and serial dilution of the standard were dispensed into a 96 well plate at 50 ul/well. Then, the pre-mixed cocktail of antibody-coated magnetic beads was dispensed at 50 ul/well and incubated at room temperature for 2 h in a horizontal orbital microplate shaker at 800±500 rpm. The beads were washed using a magnetic device to prevent loss. The biotin-antibody was dispensed in 50 ul of each well and incubated at room temperature for 1 h in a shaker at 800±500 rpm. After washing, streptavidin-PE was added at 50 ul/well and incubated at room temperature for 30 min in a shaker under the same conditions. Finally, after washing, wash buffer (100 ul/well) was added to the plate and incubated in a shaker for 2 min. The Luminex™ 200 setting were set according to the manufacturer's protocol. The data was calculated with a standard five-parameter logistic nonlinear regression analysis of the data (xPonent software 4.2, USA). Results were presented as concentration (ng/ml or pg/ml).

[1] = PBMC + LPS(5 ug/ml) + test article 0.005 nM, Mean
[2] = PBMC + LPS(5 ug/ml) + test article 0.005 nM, individual replicates
[3] = PBMC + LPS(5 ug/ml) + test article 0.05 nM, Mean
[4] = PBMC + LPS(5 ug/ml) + test article 0.05 nM, individual replicates
[5] = PBMC + LPS(5 ug/ml) + test article 0.5 nM, Mean
[6] = PBMC + LPS(5 ug/ml) + test article 0.5 nM, individual replicates
[7] = PBMC + LPS(5 ug/ml) + test article 5 nM, Mean
[8] = PBMC + LPS(5 ug/ml) + test article 5 nM, individual replicates
[9] = PBMC + LPS(5 ug/ml) + test article 50 nM, Mean
[10] = PBMC + LPS(5 ug/ml) + test article 50 nM, individual replicates
[11] = PBMC + LPS(5 ug/ml) + test article 500 nM, Mean
[12] = PBMC + LPS(5 ug/ml) + test article 500 nM, individual replicates
[13] = PBMC + test article 0.5 nM, no LPS, Mean
[14] = PBMC + test article 0.5 nM, no LPS, individual replicates (1st, 2nd)
[15] = PBMC + test article 5 nM, no LPS, Mean
[16] = PBMC + test article 5 nM, no LPS, individual replicates (1st, 2nd)
[17] = PBMC + test article 0.05 uM, no LPS, Mean
[18] = PBMC + test article 0.05 uM, no LPS, individual replicates (1st, 2nd)
[19] = PBMC + test article 50 nM, no LPS, Mean
[20] = PBMC + test article 50 nM, no LPS, individual replicates (1st, 2nd)
[21] = PBMC + test article 500 nM, no LPS, Mean
[22] = PBMC + test article 500 nM, no LPS, individual replicates (1st, 2nd)

Structure (SMILES): CC(C)C[C@H](NC(=O)[C@H](CCC(N)=O)NC(=O)CNC(=O)[C@@H]1C[C@@H](O)CN1)C(=O)NCC(=O)O [YDE-043] (H-[Hyp]GQLG-OH; N-terminus and C-terminus assumed)
- LPS-induced IL-1a levels (in words) (LPS 5 ug/mL 24 hrs): significantly lowered
- IL-1 alpha/IL-1F1 Concentration [1]: 489.6 pg/mL
- IL-1 alpha/IL-1F1 MFI [1]: 30.5
- IL-1 alpha/IL-1F1 Concentration [2]: 383.2 pg/mL and 490.5 pg/mL and 595.1 pg/mL
- IL-1 alpha/IL-1F1 MFI [2]: 27.0 and 30.5 and 34.0
- IL-1 alpha/IL-1F1 Concentration [3]: 330.9 pg/mL
- IL-1 alpha/IL-1F1 MFI [3]: 25.3
- IL-1 alpha/IL-1F1 Concentration [4]: 351.9 pg/ml and 320.3 pg/ml (2×)
- IL-1 alpha/IL-1F1 MFI [4]: 26.0 and 25.0 (2×)
- IL-1 alpha/IL-1F1 Concentration [5]: 351.9 pg/mL
- IL-1 alpha/IL-1F1 MFI [5]: 26.0
- IL-1 alpha/IL-1F1 Concentration [6]: 351.9 pg/mL and 367.6 pg/mL and 336.2 pg/mL
- IL-1 alpha/IL-1F1 MFI [6]: 26.0 and 26.5 and 25.5
- IL-1 alpha/IL-1F1 Concentration [7]: 465.1 pg/mL
- IL-1 alpha/IL-1F1 MFI [7]: 29.7
- IL-1 alpha/IL-1F1 Concentration [8]: 505.6 pg/ml and 444.9 pg/ml (2×)
- IL-1 alpha/IL-1F1 MFI [8]: 31.0 and 29.0 (2×)
- IL-1 alpha/IL-1F1 Concentration [9]: 434.5 pg/mL
- IL-1 alpha/IL-1F1 MFI [9]: 28.7
- IL-1 alpha/IL-1F1 Concentration [10]: 475.3 pg/mL and 444.9 pg/mL and 383.2 pg/mL
- IL-1 alpha/IL-1F1 MFI [10]: 30.0 and 29.0 and 27.0
- IL-1 alpha/IL-1F1 Concentration [11]: 424.2 pg/mL
- IL-1 alpha/IL-1F1 MFI [11]: 28.3
- IL-1 alpha/IL-1F1 Concentration [12]: 475.3 pg/mL and 414.2 pg/mL and 383.2 pg/mL
- IL-1 alpha/IL-1F1 MFI [12]: 30.0 and 28.0 and 27.0

Structure (SMILES): CC(C)C[C@H](NC(=O)CNC(=O)[C@H](CC(=O)O)NC(=O)[C@H](CCC(N)=O)NC(=O)CNC(=O)[C@@H]1C[C@@H](O)CN1)C(=O)N[C@@H](C)C(=O)NCC(=O)N1CCC[C@H]1C(=O)N[C@@H](CCCCN)C(=O)O [YY-101] (H-[Hyp]GQDGLAGPK-OH; N-terminus and C-terminus assumed)
- IL-1 alpha/IL-1F1 Concentration [1]: 424.2 pg/mL
- IL-1 alpha/IL-1F1 MFI [1]: 28.3
- IL-1 alpha/IL-1F1 Concentration [2]: 414.2 pg/mL and 383.2 pg/mL and 475.3 pg/mL
- IL-1 alpha/IL-1F1 MFI [2]: 28.0 and 27.0 and 30.0
- IL-1 alpha/IL-1F1 Concentration [3]: 479.4 pg/mL
- IL-1 alpha/IL-1F1 MFI [3]: 30.2
- IL-1 alpha/IL-1F1 Concentration [4]: 414.2 pg/ml (2×) and 609.8 pg/ml
- IL-1 alpha/IL-1F1 MFI [4]: 28.0 (2×) and 34.5
- IL-1 alpha/IL-1F1 Concentration [5]: 455.0 pg/mL
- IL-1 alpha/IL-1F1 MFI [5]: 29.3
- IL-1 alpha/IL-1F1 Concentration [6]: 460.1 pg/ml (2×) and 444.9 pg/ml
- IL-1 alpha/IL-1F1 MFI [6]: 29.5 (2×) and 29.0
- IL-1 alpha/IL-1F1 Concentration [7]: 485.3 pg/mL
- IL-1 alpha/IL-1F1 MFI [7]: 30.3
- IL-1 alpha/IL-1F1 Concentration [8]: 444.9 pg/mL and 475.3 pg/mL and 535.6 pg/mL
- IL-1 alpha/IL-1F1 MFI [8]: 29.0 and 30.0 and 32.0
- IL-1 alpha/IL-1F1 Concentration [9]: 429.2 pg/mL
- IL-1 alpha/IL-1F1 MFI [9]: 28.5
- IL-1 alpha/IL-1F1 Concentration [10]: 383.2 pg/mL and 398.7 pg/mL and 505.6 pg/mL
- IL-1 alpha/IL-1F1 MFI [10]: 27.0 and 27.5 and 31.0
- IL-1 alpha/IL-1F1 Concentration [11]: 449.6 pg/mL
- IL-1 alpha/IL-1F1 MFI [11]: 29.2
- IL-1 alpha/IL-1F1 Concentration [12]: 460.1 pg/mL and 505.6 pg/mL and 383.2 pg/mL
- IL-1 alpha/IL-1F1 MFI [12]: 29.5 and 31.0 and 27.0
- IL-1 alpha/IL-1F1 Concentration [13]: 155.5 pg/mL
- IL-1 alpha/IL-1F1 MFI [13]: 20.0
- IL-1 alpha/IL-1F1 Concentration [14]: 155.5 pg/mL
- IL-1 alpha/IL-1F1 MFI [14]: 20.0
- IL-1 alpha/IL-1F1 Concentration [15]: 155.5 pg/mL
- IL-1 alpha/IL-1F1 MFI [15]: 20.0
- IL-1 alpha/IL-1F1 Concentration [16]: 155.5 pg/mL
- IL-1 alpha/IL-1F1 MFI [16]: 20.0
- IL-1 alpha/IL-1F1 Concentration [17]: 92.0 pg/mL
- IL-1 alpha/IL-1F1 MFI [17]: 18.3
- IL-1 alpha/IL-1F1 Concentration [18]: 45.8 pg/mL and 138.1 pg/mL
- IL-1 alpha/IL-1F1 MFI [18]: 17.0 and 19.5
- IL-1 alpha/IL-1F1 Concentration [19]: 111.1 pg/mL
- IL-1 alpha/IL-1F1 MFI [19]: 18.8
- IL-1 alpha/IL-1F1 Concentration [20]: 138.1 pg/mL and 84.2 pg/mL
- IL-1 alpha/IL-1F1 MFI [20]: 19.5 and 18.0
- IL-1 alpha/IL-1F1 Concentration [21]: 84.2 pg/mL
- IL-1 alpha/IL-1F1 MFI [21]: 18.0
- IL-1 alpha/IL-1F1 Concentration [22]: 84.2 pg/mL
- IL-1 alpha/IL-1F1 MFI [22]: 18.0
